From patent US10421774B2 (priority 2016, dated 2019)
Where two headings read alike, the source gives them in different places.

Tests used:
Test in all cases: microbe, parasite or virus in culture
Format in all cases: cell-based, HIV-1
[1] = test system: gag V370A/ΔT371 virus; conditions: for EC50: Human immunodeficiency virus 1, MT2, read-out: V370A/ΔT371 EC50
Summary of the method: (§1)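 Virus yield quantified by Renilla luciferase after 4–5 day culture at 37°C of MT-2 cells (10,000/well) with 3-fold serially diluted compound at 1% final DMSO. Reporter viruses were NL4-3 P373S derivatives bearing Gag A364V or V370A/ΔT371, inputs matched on luciferase endpoint.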

[2] = test system: A364V site directed mutant virus; conditions: for EC50: Human immunodeficiency virus 1, MT2, read-out: A364V EC50
Summary of the method: as §1

[3] = test system: NLRepRlucP373S recombinant wild type (WT) virus
Summary of the method: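 Multiple-cycle assay: luciferase-normalized NL4-3-derived NLRepRlucP373S (Renilla luciferase in place of nef) infects MT-2 cells, 10,000 cells/well, with 3-fold compound dilutions at 1% DMSO, 4-5 days, 37 °C. EC50 and EC90 fitted by median effect equation against Renilla luminescence, with residual signal under 3 μM NFV as background.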

[4] = test system: T332S/V362I/Pr R41G virus; conditions: for EC50: Human immunodeficiency virus 1, MT2, read-out: T332S/V362I/pr41G EC50
Summary of the method: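 Multiple-cycle susceptibility: MT-2 cells, 10,000 per well, exposed to 3-fold compound dilutions at 1% DMSO after infection with luciferase-normalized inoculum. Virus: NL4-3-derived Renilla reporter (Gag P373S) with Gag T332S/V362I and protease R41G. Readout Renilla luciferase after 4–5 days, 37 °C.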

[5] = Human immunodeficiency virus 1, MT2, read-out: WT EC50

With C=C(C)[C@@H]1CC[C@]2(NCCC3(O)CCS(=O)(=O)CC3)CC[C@]3(C)[C@H](CC[C@@H]4[C@@]5(C)CC=C(C6=CCC(COc7ccccn7)(C(=O)O)CC6)C(C)(C)[C@@H]5CC[C@]43C)[C@@H]12 (stereo partly drawn) [Example 33, 4-((1R,3aS,5aR,5bR,7aR,11aS,11bR,13aR,13bR)-3a-((2-(4-hydroxy-1,1-dioxidotetrahydro-2H-thiopyran-4-yl)ethyl)amino)-5a,5b,8,8,11a-pentamethyl-1-(prop-1-en-2-yl)-2,3,3a,4,5,5a,5b,6,7,7a,8,11,11a,11b,12,13,13a,13b-octadecahydro-1H-cyclopenta[a]chrysen-9-yl)-1-((pyridin-2-yloxy)methyl)cyclohex-3-ene-1-carboxylic acid] the EC50 [1] was < 50 nM, the EC50 [2] was 16 nM and the EC50 [3, 5] was 5 nM. For the same compound, the EC50 [4] was < 50 nM.

In the case of C=C(C)[C@@H]1CC[C@]2(NCCN3CCS(=O)(=O)CC3)CC[C@]3(C)[C@H](CC[C@@H]4[C@@]5(C)CC=C(C6=CCC(COc7ncccn7)(C(=O)O)CC6)C(C)(C)[C@@H]5CC[C@]43C)[C@@H]12 (stereo partly drawn) [Example 34], the EC50 [1] is reported as 13 nM, the EC50 [2] is reported as < 50 nM and the EC50 [3, 5] is reported as 2 nM. For the same compound, the EC50 [4] was 13 nM.

For C=C(C)[C@@H]1CC[C@]2(NCCN3CCS(=O)(=O)CC3)CC[C@]3(C)[C@H](CC[C@@H]4[C@@]5(C)CC=C(C6=CCC(COc7nccc8ccc(OC)cc78)(C(=O)O)CC6)C(C)(C)[C@@H]5CC[C@]43C)[C@@H]12 (stereo partly drawn) [Example 35, 4-((1R,3aS,5aR,5bR,7aR,11aS,11bR,13aR,13bR)-3a-((2-(1,1-dioxidothiomorpholino)ethyl)amino)-5a,5b,8,8,11a-pentamethyl-1-(prop-1-en-2-yl)-2,3,3a,4,5,5a,5b,6,7,7a,8,11,11a,11 b,12,13,13a,13b-octadecahydro-1H-cyclopenta[a]chrysen-9-yl)-1-(((7-methoxyisoquinolin-1-yl)oxy)methyl)cyclohex-3-ene-1-carboxylic acid], the EC50 [1] was > 50 nM, the EC50 [2] was 24 nM and the EC50 [3, 5] was 7 nM. For the same compound, the EC50 [4] was > 50 nM.

C=C(C)[C@@H]1CC[C@]2(NCCN3CCS(=O)(=O)CC3)CC[C@]3(C)[C@H](CC[C@@H]4[C@@]5(C)CC=C(C6=CCC(COc7ncccc7C#N)(C(=O)O)CC6)C(C)(C)[C@@H]5CC[C@]43C)[C@@H]12 (stereo partly drawn) [Example 36, 1-(((3-cyanopyridin-2-yl)oxy)methyl)-4-((1R,3aS,5aR,5bR,7aR,11aS,11bR,13aR,13bR)-3a-((2-(1,1-dioxidothiomorpholino)ethyl)amino)-5a,5b,8,8,11a-pentamethyl-1-(prop-1-en-2-yl)-2,3,3a,4,5,5a,5b,6,7,7a,8,11,11a,11b,12,13,13a,13b-octadecahydro-1H-cyclopenta[a]chrysen-9-yl)cyclohex-3-ene-1-carboxylic acid] showed an EC50 [1] of 11 nM, an EC50 [2] of 5 nM and an EC50 [3, 5] of 3 nM. The EC50 [4] was 11 nM.

In the case of C=C(C)[C@@H]1CC[C@]2(NCCN3CCS(=O)(=O)CC3)CC[C@]3(C)[C@H](CC[C@@H]4[C@@]5(C)CC=C(C6=CCC(COc7cc(C#N)ccn7)(C(=O)O)CC6)C(C)(C)[C@@H]5CC[C@]43C)[C@@H]12 (stereo partly drawn) [Example 37, 1-(((4-cyanopyridin-2-yl)oxy)methyl)-4-((1R,3aS,5aR,5bR,7aR,11aS,11bR,13aR,13bR)-3a-((2-(1,1-dioxidothiomorpholino)ethyl)amino)-5a,5b,8,8,11a-pentamethyl-1-(prop-1-en-2-yl)-2,3,3a,4,5,5a,5b,6,7,7a,8,11,11a,11b,12,13,13a,13b-octadecahydro-1H-cyclopenta[a]chrysen-9-yl)cyclohex-3-ene-1-carboxylic acid], the EC50 [1] is reported as > 50 nM, the EC50 [2] is reported as > 50 nM and the EC50 [3, 5] is reported as < 50 nM. For the same compound, the EC50 [4] was > 50 nM.

With C=C(C)[C@@H]1CC[C@]2(NCCN3CCS(=O)(=O)CC3)CC[C@]3(C)[C@H](CC[C@@H]4[C@@]5(C)CC=C(C6=CCC(COc7ccc(C#N)cn7)(C(=O)O)CC6)C(C)(C)[C@@H]5CC[C@]43C)[C@@H]12 (stereo partly drawn) [Example 38, 1-(((5-cyanopyridin-2-yl)oxy)methyl)-4-((1R,3aS,5aR,5bR,7aR,11aS,11bR,13aR,13bR)-3a-((2-(1,1-dioxidothiomorpholino)ethyl)amino)-5a,5b,8,8,11a-pentamethyl-1-(prop-1-en-2-yl)-2,3,3a,4,5,5a,5b,6,7,7a,8,11,11a,11b,12,13,13a,13b-octadecahydro-1H-cyclopenta[a]chrysen-9-yl)cyclohex-3-ene-1-carboxylic acid] the EC50 [1] was 232 nM, the EC50 [2] was 29 nM and the EC50 [3, 5] was 2 nM. For the same compound, the EC50 [4] was 232 nM.

For C=C(C)[C@@H]1CC[C@]2(NCCN3CCS(=O)(=O)CC3)CC[C@]3(C)[C@H](CC[C@@H]4[C@@]5(C)CC=C(C6=CCC(COc7cccc(C#N)n7)(C(=O)O)CC6)C(C)(C)[C@@H]5CC[C@]43C)[C@@H]12 (stereo partly drawn) [Example 39, 1-(((6-cyanopyridin-2-yl)oxy)methyl)-4-((1R,3aS,5aR,5bR,7aR,11aS,11bR,13aR,13bR)-3a-((2-(1,1-dioxidothiomorpholino)ethyl)amino)-5a,5b,8,8,11a-pentamethyl-1-(prop-1-en-2-yl)-2,3,3a,4,5,5a,5b,6,7,7a,8,11,11a,11b,12,13,13a,13b-octadecahydro-1H-cyclopenta[a]chrysen-9-yl)cyclohex-3-ene-1-carboxylic acid], the EC50 [1] was > 50 nM, the EC50 [2] was < 50 nM and the EC50 [3, 5] was 14 nM. The EC50 [4] was > 50 nM.

C=C(C)[C@@H]1CC[C@]2(NCCN3CCS(=O)(=O)CC3)CC[C@]3(C)[C@H](CC[C@@H]4[C@@]5(C)CC=C(C6=CCC(COc7cccc(C(N)=O)n7)(C(=O)O)CC6)C(C)(C)[C@@H]5CC[C@]43C)[C@@H]12 (stereo partly drawn) [Example 40, 1-(((6-carbamoylpyridin-2-yl)oxy)methyl)-4-((1R,3aS,5aR,5bR,7aR,11aS,11bR,13aR,13bR)-3a-((2-(1,1-dioxidothiomorpholino)ethyl)amino)-5a,5b,8,8,11a-pentamethyl-1-(prop-1-en-2-yl)-2,3,3a,4,5,5a,5b,6,7,7a,8,11,11a,11b,12,13,13a,13b-octadecahydro-1H-cyclopenta[a]chrysen-9-yl)cyclohex-3-ene-1-carboxylic acid] gave an EC50 [1] of 233 nM, an EC50 [2] of 271 nM and an EC50 [3, 5] of 4 nM. It also gave an EC50 [4] of 233 nM.

In the case of C=C(C)[C@@H]1CC[C@]2(NCC[C@]3(O)CC[C@@H](S(C)(=O)=O)CC3)CC[C@]3(C)[C@H](CC[C@@H]4[C@@]5(C)CC=C(C6=CCC(COc7ccccn7)(C(=O)O)CC6)C(C)(C)[C@@H]5CC[C@]43C)[C@@H]12 (stereo partly drawn) [Example A1, 4-((1R,3aS,5aR,5bR,7aR,11aS,11bR,13aR,13bR)-3a-((2-((1s,4R)-1-hydroxy-4-(methylsulfonyl)cyclohexyl)ethyl)amino)-5a,5b,8,8,11a-pentamethyl-1-(prop-1-en-2-yl)-2,3,3a,4,5,5a,5b,6,7,7a,8,11,11a,11 b,12,13,13a,13b-octadecahydro-1H-cyclopenta[a]chrysen-9-yl)-1-((pyridin-2-yloxy)methyl)cyclohex-3-enecarboxylic acid], the EC50 [1] is reported as 26 nM, the EC50 [2] is reported as 9 nM and the EC50 [3, 5] is reported as 5 nM. It also gave an EC50 [4] of 26 nM.

Compound C=C(C)[C@@H]1CC[C@]2(NCC[C@]3(O)CC[C@H](S(C)(=O)=O)CC3)CC[C@]3(C)[C@H](CC[C@@H]4[C@@]5(C)CC=C(C6=CCC(COc7ccccn7)(C(=O)O)CC6)C(C)(C)[C@@H]5CC[C@]43C)[C@@H]12 (stereo partly drawn) [Example A2, 4-((1R,3aS,5aR,5bR,7aR,11aS,11bR,13aR,13bR)-3a-((2-((1r,4S)-1-hydroxy-4-(methylsulfonyl)cyclohexyl)ethyl)amino)-5a,5b,8,8,11a-pentamethyl-1-(prop-1-en-2-yl)-2,3,3a,4,5,5a,5b,6,7,7a,8,11,11a,11 b,12,13,13a,13b-octadecahydro-1H-cyclopenta[a]chrysen-9-yl)-1-((pyridin-2-yloxy)methyl)cyclohex-3-enecarboxylic acid] has an EC50 [1] of 8 nM, an EC50 [2] of 14 nM and an EC50 [3, 5] of 1 nM. It also gave an EC50 [4] of 8 nM.

With C=C(C)[C@@H]1CC[C@]2(NCC[C@]3(O)CC[C@@H](S(C)(=O)=O)CC3)CC[C@]3(C)[C@H](CC[C@@H]4[C@@]5(C)CC=C(C6=CC[C@@](COc7ncccc7C#N)(C(=O)O)CC6)C(C)(C)[C@@H]5CC[C@]43C)[C@@H]12 [Example A3, (S)-1-(((3-cyanopyridin-2-yl)oxy)methyl)-4-((1R,3aS,5aR,5bR,7aR,11aS,11bR,13aR,13bR)-3a-((2-((1s,4R)-1-hydroxy-4-(methylsulfonyl)cyclohexyl)ethyl)amino)-5a,5b,8,8,11a-pentamethyl-1-(prop-1-en-2-yl)-2,3,3a,4,5,5a,5b,6,7,7a,8,11,11a,11b,12,13,13a,13b-octadecahydro-1H-cyclopenta[a]chrysen-9-yl)cyclohex-3-enecarboxylic acid] the EC50 [1] was 5 nM, the EC90 ([1]; Human immunodeficiency virus 1, read-out: V370A/ΔT371 EC90) was 15 nM and the EC50 [2] was 11 nM. It also gave an EC90 ([2]; Human immunodeficiency virus 1, read-out: A364V EC90) of 166 nM, an EC50 [3, 5] of 4 nM and an EC50 ([3]; Human immunodeficiency virus 1, read-out: WT EC50) of 4 nM. For the same compound, the EC50 [4] was 5 nM and the EC90 ([4]; Human immunodeficiency virus 1, read-out: T332S/V362I/prR41G EC90) was 17 nM.
